US20130281504A1, “Reduction of Microglia-Mediated Neurotoxicity by KCa3.1 Inhibition” (THE REGENTS OF THE UNIVERSITY OF CALIFORNIA, priority 2010, published 2013)

Assays:
Assay type in all cases: cell-based, mouse
microglia [1] = experiment: Assay for nitric oxide (nitrite) in microglia conditioned medium; conditions: for AβO-induced increase of microglia NO production: 5 μM 1400 W, 100 μM L-NIL, FIG. 8A
hippocampal neurons [2] = experiment: Indirect neurotoxicity of conditioned medium from AβO-treated microglia on hippocampal neurons; conditions: microglia co-treated 24 hrs with 1400 W or L-NIL; 25% CM; FIG. 8B
Method: Hippocampal neuronal cultures were prepared from newborn wild type C57BL/6J mice according to the method of Xiang et al (26). Neurons were cultured in NB/B27 at a density of 2.5×10^5 cells/well in 12-well plates or 8×10^5 cells/well in 6-well plates for at least 14 days before they were treated with microglia CM.
Hippocampal neurons were prepared as described above and were plated onto 96-well plate at a density of 6×10^4 cells/well and cultured for 14 days. CM from microglia cultures was added onto neurons with indicated dilutions, and cultures were incubated for 24 hrs.
For immunofluorescent staining of neurons, cultures were fixed in 4% paraformaldehyde and stained with anti-PSD95 (1:200, Cell Signaling), anti-MAP2 (1:500, Chemicon) and anti-acetylated α-tubulin (1:250, Zymed). […] Immunostained images were observed under a Nikon Eclipse E600 microscope and photographed by a digital camera (SPOT RTke, SPOT Diagnostics, Sterling Heights, Mich.).
For quantification of the PSD95-immunoreactive puncta along the dendrites, photomicrographs of PSD95 immunostained cultures were randomly taken from each culture condition. The images were transformed to 8 bit gray scale and analyzed with the Image J program. The number of puncta in each photomicrograph was counted and normalized by dendritic length. The photography and analysis were conducted in an investigator-blinded manner

hippocampal slices = experiment: AβO-treated organotypic hippocampal slice cultures; conditions: iNOS inhibitors applied 1 hr prior to AβO; for AβO-induced NO production by hippocampal slices: FIG. 8C; for AβO-induced neuronal damage (PI uptake) in hippocampal slices: FIG. 8D
Method: Hippocampal slice cultures (400 μm-thick) were prepared from 7-day-old C57BL/6J mice as previously described (25) and cultured for 10 days in vitro before use. Neuronal damage in the slices was monitored by PI uptake following Bernardino et al (27). PI itself is not toxic to neurons (27). […] After 24 hrs, the slices were observed under a Nikon Eclipse E600 microscope and the red (630 nm) fluorescence emitted by PI taken up by damaged cells was photographed by a digital camera (SPOT RTke, SPOT Diagnostics, Sterling Heights, Mich.) with fixed exposure time.
For immunofluorescent staining of neurons, cultures were fixed in 4% paraformaldehyde and stained with anti-PSD95 (1:200, Cell Signaling), anti-MAP2 (1:500, Chemicon) and anti-acetylated α-tubulin (1:250, Zymed). For immunofluorescent staining of microglia, cultures or hippocampal slices were fixed in 4% paraformaldehyde and stained with anti-IBA1 (1:500, Wako Chemicals USA), anti-SRA (E-20, 1:200, Santa Cruz Biotechnology), and anti-CD11b (1:200, AbD Serotec USA, Raleigh, N.C.). The fixed cells or hippocampal slices were incubated with antibodies for overnight at 4° C. followed by secondary Alexa488 conjugated anti-mouse or Alexa568 conjugated anti-rabbit antibody (1:700, Molecular probes). Immunostained images were observed under a Nikon Eclipse E600 microscope and photographed by a digital camera (SPOT RTke, SPOT Diagnostics, Sterling Heights, Mich.).
(§1) To obtain lysates, cells or tissues were washed with ice-cold PBS and incubated with a buffer containing 50 mmol/L Tris-HCl (pH 7.4), 150 mmol/L NaCl, 2% SDS, proteinase inhibitor cocktail (Sigma), and phosphatase inhibitor cocktail (Sigma). Lysates were briefly sonncated and cleared by centrifugation at 50,000 rpm for 10 min. Equivalent amounts of protein were analyzed by Tris/HCL gel electrophoresis. Proteins were transferred to polyvinylidene difluoride membranes and probed with antibodies. Visualization was performed using enhanced chemiluminescence (ECL, Amersham Pharmacia, Piscataway, N.J.).
Conditioned medium collected from microglia cultures (1×10^5/0.75 cm^2) and hippocampal slices treated with Aβ for 24 hrs were analyzed by the Nitric Oxide Quantization Kit according to the protocol of the manufacturer (Active Motif, Carlsbad, Calif.). Data were normalized to the amount of total protein.

microglia [3] = experiment: AβO-induced microglia proliferation/activation (cell number); conditions: for microglia cell counts, % of solvent-treated controls: mean±S.E
p38MAPK = p38MAPK phosphorylation in microglia (Western blot); conditions: AβO, 30 minutes
Method: Primary microglia cultures derived from newborn C57BL/6J mice were prepared from mixed glia cultures with the “shaking off” method described by Maezawa, I., et al.; (2006) FASEB J 20, 797-799. […] To obtain conditioned medium (CM) for treating neurons, microglia were first cultured in 24-well culture plates at a density of 1.3×10^5 cells/cm^2 for 24 hrs in DMEM with 10% fetal bovine serum (DMEM10). Cultures were washed extensively and changed to the Neurobasal medium with B27 supplement (NB/B27, Invitrogen) without serum and cultured for another 24 hrs. The NB/B27-based microglia CMs were collected, briefly centrifuged, and used immediately or frozen for future uses.
as §1
The following primary antibodies (dilutions) were used: anti-p38MAPK (1:1000, Cell Signaling Technology, Boston, Mass.), anti-phospho-p38MAPK (1:1000, Cell Signaling Technology), anti-Synaptophysin (1:1000, Abcam), anti-PSD95 (1:1000, cell signaling), anti-GRIP 1 (1:1000, UpState), anti-MAP2 (1:1000, Chemicon), anti-acetylated α-tubulin (1:2000, Zymed), and anti-β-actin (1:3000, Sigma). Secondary antibodies were HRP-conjugated anti-rabbit, anti-goat, or anti-mouse antibody (1:3000 Amersham).

NFκB = NFκB assay in microglia; conditions: AβO, 2 hrs
Method: The detection of cells with active NFκB was performed according to the method described by Franciosi, S., et al.; (2006) J Neurosci 26, 11652-11664. Briefly, microglia were plated as described above and treated with activators for 2 hrs. Cells were fixed and stained with anti-NF-κBp65 antibody (1:250, Chemicon) and with the nuclear dye DAPI.

hippocampal neurons [4] = experiment: Viability of cultured hippocampal neurons, direct AβO; conditions: direct addition

CC(=N)NCc1cccc(CN)c1 [1400 W, N-[(3-aminomethyl)benzyl]acetamidine, reference compound]
AβO-induced increase of microglia NO production (microglia [1]): prevented | AβO-induced microglial neurotoxicity (neuronal viability) (hippocampal neurons [2]): blocked | AβO-induced NO production by hippocampal slices (hippocampal slices): blocked | AβO-induced neuronal damage (PI uptake) in hippocampal slices (hippocampal slices): blocked

Nc1c(/N=N/c2ccc(-c3ccc(/N=N/c4cc(S(=O)(=O)O)c5ccccc5c4N)cc3)cc2)cc(S(=O)(=O)O)c2ccccc12 [Congo red, reference compound]
AβO mitogenic effect on microglia (cell numbers) (microglia [3]; 20 nM AβO, 24 hrs, A11 50 nM, CR 100 nM, FIG. 1D): blocked | microglia activation / mitogenic effect induced by human brain AβO (microglia [3]; soluble AD hippocampus extracts): blocked

CC(=N)NCCCC[C@H](N)C(=O)O [L-NIL, N-iminoethyl-Llysine, reference compound]
AβO-induced increase of microglia NO production (microglia [1]): prevented | AβO-induced microglial neurotoxicity (neuronal viability) (hippocampal neurons [2]): blocked | AβO-induced NO production by hippocampal slices (hippocampal slices): blocked | AβO-induced neuronal damage (PI uptake) in hippocampal slices (hippocampal slices): blocked

AβO: synthetic Aβ42 peptide oligomers, microglia activator
AβO concentration at which microglia proliferation maximizes (microglia [3]): around 50 nM | AβO concentration at which microglia proliferation starts (microglia [3]): 5 nM | microglia cell counts, % of solvent-treated controls (microglia [3]; 20 nM AβO, 24 hr): 184±8.59% | microglia cell counts, % of solvent-treated controls (microglia [3]; 20 nM AβO, 48 hr): 330±21.8% | phosphorylated p38MAPK, % of vehicle treatment control (p38MAPK): 225±38% | increase of cells with active NFκB immunoreactivity (NFκB): six-fold increase | increase of NO release per cell (microglia [1]; AβO 24 hr, normalized to total cellular protein): ~80% | AβO concentrations affecting viability of cultured hippocampal neurons (hippocampal neurons [4]): above 100 nM

polyinosinic acid [poly I, reference compound]
AβO-induced microglia activation / proliferation (microglia [3]; 20 nM AβO 24 hrs, 100 ng/ml poly I, 10 μg/ml E-20, 20 μM doxycycline, 1 μM TRAM-34, FIG. 3): blocked
